Results: patent publication US9540392B2, “Thienopyrimidines” (BAYER PHARMA AKTIENGESELLSCHAFT, priority 2012, dated 2017)

target: T1, human full-length MKNK1 (Homo sapiens, UniProt Q9BUB5, T385D); test: MKNK1 kinase high ATP assay (TR-FRET); type: biochemical; details: 2 mM ATP, after preincubation with MKNK1; read-out: MKNK1 IC50 (MKNK1 high ATP)
T1 construct: GST (N); purchased Carna Biosciences 02-145; host or cells: insect cells (baculovirus expression system)
Summary of the method: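 Compound was preincubated 15 min at 22° C. with MKNK1 in 50 mM HEPES pH 7.5, 5 mM MgCl2, 1.0 mM DTT, then the reaction ran 30 min at 22° C. with 2 mM ATP and 0.06 μM biotinylated peptide (final).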

T1 sequence (Q9BUB5 1-424 isoform Q9BUB5-2 T344D): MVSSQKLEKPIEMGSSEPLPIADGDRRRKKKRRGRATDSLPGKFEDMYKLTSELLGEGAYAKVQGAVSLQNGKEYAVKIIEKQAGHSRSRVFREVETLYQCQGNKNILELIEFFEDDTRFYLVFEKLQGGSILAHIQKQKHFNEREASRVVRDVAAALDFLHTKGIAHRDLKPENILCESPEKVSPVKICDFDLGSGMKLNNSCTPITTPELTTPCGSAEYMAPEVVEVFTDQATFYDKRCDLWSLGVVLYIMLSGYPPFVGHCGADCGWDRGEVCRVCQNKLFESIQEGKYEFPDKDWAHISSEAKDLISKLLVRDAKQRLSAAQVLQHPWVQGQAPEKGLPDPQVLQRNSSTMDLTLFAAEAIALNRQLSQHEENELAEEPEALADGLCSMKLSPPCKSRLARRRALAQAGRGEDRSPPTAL

Compound | IC50 [nM]
CCOc1cc2[nH]ncc2cc1Nc1ncnc2sc3c(c12)CCC(C(=O)N(C)CCOC)C3 (racemic) [Example 245, (RS)-4-[(6-Ethoxy-1H-indazol-5-yl)amino]-N-(2-methoxyethyl)-N-methyl-5,6,7,8-tetrahydro[1]benzothieno[2,3-d]pyrimidine-7-carboxamide] | 0.7
O=C(NCC(F)(F)F)C1CCc2c(sc3ncnc(Nc4ccc5[nH]ncc5c4)c23)C1 (centres unmarked) [Example 33, 4-(1H-Indazol-5-ylamino)-N-(2,2,2-trifluoroethyl)-5,6,7,8-tetrahydro[1] benzothieno [2,3-d]pyrimidine-7-carboxamide] | 5
CCOc1cc2[nH]ncc2cc1Nc1ncnc2sc3c(c12)CCC(C(=O)N1CCN2CCCCC2C1)C3 (racemic) [Example 270, {(7RS)-4-[(6-Ethoxy-1H-indazol-5-yl)amino]-5,6,7,8-tetrahydro[1]benzothieno[2,3-d]pyrimidin-7-yl}[(9aRS)-octahydro-2H-pyrido[1,2-a]pyrazin-2-yl]methanone] | 0.4
N#Cc1ccc(NC(=O)C2CCc3c(sc4ncnc(Nc5ccc6[nH]ncc6c5)c34)C2)cc1 (racemic) [Example 77, (RS)—N-(4-Cyanophenyl)-4-(1H-indazol-5-ylamino)-5,6,7,8-tetrahydro[1]benzothieno[2,3-d]pyrimidine-7-carboxamide] | 19.7
Cc1ccc(CNC(=O)C2CCc3c(sc4ncnc(Nc5ccc6[nH]ncc6c5)c34)C2)cc1 (centres unmarked) [Example 27, 4-(1H-Indazol-5-ylamino)-N-(4-methylbenzyl)-5,6,7,8-tetrahydro[1] benzothieno [2,3-d]pyrimidine-7-carboxamide] | 3
Cc1cnc(CNC(=O)C2CCc3c(sc4ncnc(Nc5ccc6[nH]ncc6c5)c34)C2)cn1 (racemic) [Example 148, (RS)-4-(1H-indazol-5-ylamino)-N-[(5-methylpyrazin-2-yl)methyl]-5,6,7,8-tetrahydro[1]benzothieno[2,3-d]pyrimidine-7-carboxamide] | 8.1
COc1cc2[nH]ncc2cc1Nc1ncnc2sc3c(c12)CCC(C(=O)N(C)CC1CC1)C3 (racemic) [Example 182, (RS)—N-(Cyclopropylmethyl)-4-[(6-methoxy-1H-indazol-5-yl)amino]-N-methyl-5,6,7,8-tetrahydro[1]benzothieno[2,3-d]pyrimidine-7-carboxamide] | 0.5
O=C(Nc1cccnn1)C1CCc2c(sc3ncnc(Nc4ccc5[nH]ncc5c4)c23)C1 (racemic) [Example 149, (RS)-4-(1H-indazol-5-ylamino)-N-(pyridazin-3-yl)-5,6,7,8-tetrahydro[1]benzothieno[2,3-d]pyrimidine-7-carboxamide] | 27.4
CC(C)Oc1cc2[nH]ncc2cc1Nc1ncnc2sc3c(c12)CCC(C(=O)N1CCCCC1)C3 (racemic) [Example 213, (RS)-Piperidin-1-yl(4-{[6-(propan-2-yloxy)-1H-indazol-5-yl]amino}-5,6,7,8-tetrahydro[1]benzothieno[2,3-d]pyrimidin-7-yl)methanone] | 1.5
CC(=O)N1CCN(CCNC(=O)C2CCc3c(sc4ncnc(Nc5ccc6[nH]ncc6c5)c34)C2)CC1 (racemic) [Example 168, (RS)-N-[2-(4-acetylpiperazin-1-yl)ethyl]-4-(1H-indazol-5-ylamino)-5,6,7,8-tetrahydro[1]benzothieno[2,3-d]pyrimidine-7-carboxamide] | 17.4
CN(Cc1ccccc1)C(=O)C1CCc2c(sc3ncnc(Nc4ccc5[nH]ncc5c4)c23)C1 (racemic) [Example 101, (RS)-N-benzyl-4-(1H-indazol-5-ylamino)-N-methyl-5,6,7,8-tetrahydro[1]benzothieno[2,3-d]pyrimidine-7-carboxamide] | 4.7
CN(C)C(=O)C1CCc2c(sc3ncnc(Nc4cc5cn[nH]c5cc4N(C)C)c23)C1 (racemic) [Example 251, (RS)-4-{[6-(Dimethylamino)-1H-indazol-5-yl]amino}-N,N-dimethyl-5,6,7,8-tetrahydro[1]benzothieno[2,3-d]pyrimidine-7-carboxamide] | 0.2
CCOc1cc2[nH]ncc2cc1Nc1ncnc2sc3c(c12)CCC(C(=O)N(C)C(C)C)C3 (racemic) [Example 224, (RS)-4-[(6-Ethoxy-1H-indazol-5-yl)amino]-N-isopropyl-N-methyl-5,6,7,8-tetrahydro[1]benzothieno[2,3-d]pyrimidine-7-carboxamide] | 0.6

Further lines, results first:

IC50 [nM] | Compound
5 | CN(C)c1ccc(CNC(=O)C2CCc3c(sc4ncnc(Nc5ccc6[nH]ncc6c5)c34)C2)cc1 (centres unmarked) [Example 34, N-[4-(Dimethylamino)benzyl]-4-(1H-indazol-5-ylamino)-5,6,7,8-tetrahydro[1] benzothieno [2,3-d]pyrimidine-7-carboxamide]
132 | Cc1ccccc1N1CCN(C(=O)C2CCc3c(sc4ncnc(Nc5ccc6[nH]ncc6c5)c34)C2)CC1 (racemic) [Example 110, (R)S-[4-(1H-indazol-5-ylamino)-5,6,7,8-tetrahydro[1]benzothieno[2,3-d]pyrimidin-7-yl][4-(2-methylphenyl)piperazin-1-yl]methanone]
0.7 | CCCN(C)C(=O)C1CCc2c(sc3ncnc(Nc4cc5cn[nH]c5cc4OC)c23)C1 (centres unmarked) [Example 68, 4-[(6-Methoxy-1H-indazol-5-yl)amino]-N-methyl-N-propyl-5,6,7,8-tetrahydro[1]benzothieno[2,3-d]pyrimidine-7-carboxamide]
0.6 | CC(C)Oc1cc2[nH]ncc2cc1Nc1ncnc2sc3c(c12)CCC(C(=O)N1[C@H](C)CC[C@H]1C)C3 (mixture of isomers) [Example 227, [(2R,5R)-2,5-Dimethylpyrrolidin-1-yl]{(7RS)-4-[(6-isopropoxy-1H-indazol-5-yl)amino]-5,6,7,8-tetrahydro[1]benzothieno[2,3-d]pyrimidin-7-yl}methanone]
9.9 | O=C(NCCCn1ccnc1)C1CCc2c(sc3ncnc(Nc4ccc5[nH]ncc5c4)c23)C1 (racemic) [Example 93, (RS)-N-[3-(1H-imidazol-1-yl)propyl]-4-(1H-indazol-5-ylamino)-5,6,7,8-tetrahydro[1]benzothieno[2,3-d]pyrimidine-7-carboxamide]
0.2 | COc1cc2[nH]ncc2cc1Nc1ncnc2sc3c(c12)CCC(C(=O)N(C)C1CC1)C3 (racemic) [Example 181, (RS)—N—Cyclopropyl-4-[(6-methoxy-1H-indazol-5-yl)amino]-N-methyl-5,6,7,8-tetrahydro[1]benzothieno[2,3-d]pyrimidine-7-carboxamide]
1 | CCOc1cc2[nH]ncc2cc1Nc1ncnc2sc3c(c12)CCC(C(=O)N1CCC2(CC2)C1)C3 (racemic) [Example 274, (RS)-5-Azaspiro[2.4]hept-5-yl{4-[(6-ethoxy-1H-indazol-5-yl)amino]-5,6,7,8-tetrahydro[1]benzothieno[2,3-d]pyrimidin-7-yl}methanone]
3.9 | CN(C)C(=O)C1CCc2c(sc3ncnc(Nc4cc5cn[nH]c5cc4OCCCN=[N+]=[N-])c23)C1 (racemic) [Example 276, (RS)-4-{[6-(3-Azidopropoxy)-1H-indazol-5-yl]amino}-N,N-dimethyl-5,6,7,8-tetrahydro[1]benzothieno[2,3-d]pyrimidine-7-carboxamide]
9 | O=C(Nc1ccccc1)C1CCc2c(sc3ncnc(Nc4ccc5[nH]ncc5c4)c23)C1 (centres unmarked) [Example 5, 4-(1H-Indazol-5-ylamino)-N-phenyl-5,6,7,8-tetrahydro[1]benzothieno[2,3-d]pyrimidine-7-carboxamide]
6 | O=C(NCCc1ccccc1)C1CCc2c(sc3ncnc(Nc4ccc5[nH]ncc5c4)c23)C1 (centres unmarked) [Example 37, 4-(1H-Indazol-5-ylamino)-N-(2-phenylethyl)-5,6,7,8-tetrahydro[1] benzothieno [2,3-d]pyrimidine-7-carboxamide]
12.4 | O=C(C1CCc2c(sc3ncnc(Nc4ccc5[nH]ncc5c4)c23)C1)N1CC=CC1 (racemic) [Example 184, (RS)-2,5-dihydro-1H-pyrrol-1-yl[4-(1H-indazol-5-ylamino)-5,6,7,8-tetrahydro[1]benzothieno[2,3-d]pyrimidin-7-yl]methanone]
1.2 | CCOc1cc2[nH]ncc2cc1Nc1ncnc2sc3c(c12)CCC(C(=O)N1CCC(C#N)C1)C3 (racemic) [Example 265, (3RS)-1-({(7RS)-4-[(6-Ethoxy-1H-indazol-5-yl)amino]-5,6,7,8-tetrahydro[1]benzothieno[2,3-d]pyrimidin-7-yl}carbonyl)pyrrolidine-3-carbonitrile]
2.8 | CCOc1cc2[nH]ncc2cc1Nc1ncnc2sc3c(c12)CCC(C(=O)N(CC)C(C)C)C3 (racemic) [Example 236, (RS)-4-[(6-Ethoxy-1H-indazol-5-yl)amino]-N-ethyl-N-(propan-2-yl)-5,6,7,8-tetrahydro[1]benzothieno[2,3-d]pyrimidine-7-carboxamide]
10.7 | O=C(C1CCc2c(sc3ncnc(Nc4ccc5[nH]ncc5c4)c23)C1)N1CCC(c2ccccc2)CC1 (racemic) [Example 127, (RS)-[4-(1H-indazol-5-ylamino)-5,6,7,8-tetrahydro[1]benzothieno[2,3-d]pyrimidin-7-yl](4-phenylpiperidin-1-yl)methanone]
3.9 | CC(C)Oc1cc2[nH]ncc2cc1Nc1ncnc2sc3c(c12)CCC(C(=O)O)C3 (racemic) [Example 69, (RS)-4-{[6-(Propan-2-yloxy)-1H-indazol-5-yl]amino}-5,6,7,8-tetrahydro[1]benzothieno[2,3-d]pyrimidine-7-carboxylic acid]
2.2 | COc1cc2[nH]ncc2cc1Nc1ncnc2sc3c(c12)CCC(C(=O)N1CC2(CCS2(=O)=O)C1)C3 (racemic) [Example 264, (RS)-(1,1-Dioxido-1-thia-6-azaspiro[3.3]hept-6-yl){4-[(6-methoxy-1H-indazol-5-yl)amino]-5,6,7,8-tetrahydro[1]benzothieno[2,3-d]pyrimidin-7-yl}methanone]
